Assay results taken from ChEMBL document CHEMBL1122534, “Synthesis of 4-substituted 2H-naphth[1,2-b]-1,4-oxazines, a new class of dopamine agonists” (J Med Chem, 1984).

Target: Dopamine receptor (Rattus norvegicus) (UniProt P25115+P19020+P30729+P18901+P61169)
Test: ED50 for induction of contralateral turning behavior in 6-hydroxydopamine (6-OHDA) lesioned rats by ip administration.
Format: functional, organism-based

`c1ccc2c(c1)CC[C@H]1NCCOC21` (some centres not stated) gave an ED50 of 30 mg/kg.
`CCN1CCOC2c3ccccc3CC[C@H]21` (some centres not stated) gave an ED50 of 1.7 mg/kg.
